# Target: BTK enzyme (recombinant full-length BTK, hBTK) (Homo sapiens (Human), UniProt Q06187)
# Assay: Btk enzyme activity assay, LANCE TR-FRET
# Settings: not given
# Chain of BTK enzyme (recombinant full-length BTK, hBTK) (Q06187 whole entry): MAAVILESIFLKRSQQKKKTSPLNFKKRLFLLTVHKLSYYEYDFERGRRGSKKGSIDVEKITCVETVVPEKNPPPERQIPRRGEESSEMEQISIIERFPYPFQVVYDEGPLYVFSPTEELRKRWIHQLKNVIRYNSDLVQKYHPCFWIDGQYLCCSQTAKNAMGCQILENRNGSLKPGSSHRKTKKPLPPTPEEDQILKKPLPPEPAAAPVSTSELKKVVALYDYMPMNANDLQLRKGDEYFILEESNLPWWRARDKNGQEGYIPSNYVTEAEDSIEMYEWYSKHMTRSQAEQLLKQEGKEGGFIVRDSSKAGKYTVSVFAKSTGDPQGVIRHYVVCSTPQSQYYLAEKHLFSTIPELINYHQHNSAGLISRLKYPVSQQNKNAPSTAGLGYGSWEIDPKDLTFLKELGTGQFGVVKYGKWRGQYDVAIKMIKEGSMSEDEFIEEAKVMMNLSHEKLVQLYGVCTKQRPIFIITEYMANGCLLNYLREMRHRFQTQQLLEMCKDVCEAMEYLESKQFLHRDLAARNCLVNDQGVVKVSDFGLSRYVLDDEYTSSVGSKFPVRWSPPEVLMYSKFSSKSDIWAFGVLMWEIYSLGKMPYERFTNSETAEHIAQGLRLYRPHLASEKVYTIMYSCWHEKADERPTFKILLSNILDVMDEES
row,IC50 [nM],Compound
1,0.17,"Nc1nccc2c([C@@H]3CC[C@H]4CCC(=O)N4C3)nn(-c3ccc(C(=O)Nc4cc(C(F)(F)F)ccn4)cc3)c12 [Example 38, 4-{7-amino-3-[(6R,8aS)-3-oxooctahydroindolizin-6-yl]-1H-pyrazolo[3,4-c]pyridin-1-yl}-N-[4-(trifluoromethyl)pyridin-2-yl]benzamide]"

# Same assay, conditions: read-out: BTK binding IC50; 50 pM hBTK, 2 μM biotin-A5-peptide, 25 μM ATP; 60 minute compound & enzyme incubation
row,Compound,IC50 [nM]
1,"Nc1nccc2c([C@@H]3CCCN(C(=O)c4cnon4)C3)nn(-c3ccc(C(=O)Nc4cc(C(F)(F)F)ccn4)cc3)c12 [Example 13, 4-{7-amino-3-[(3R)-1-(1,2,5-oxadiazol-3-ylcarbonyl)piperidin-3-yl]-1H-pyrazolo[3,4-c]pyridin-1-yl}-N-[4-(trifluoromethyl)pyridin-2-yl]benzamide]",4.7
2,"Nc1nccc2c([C@@H]3CCCN(C(=O)CC4CCC4)C3)nn(-c3ccc(C(=O)Nc4cc(C(F)(F)F)ccn4)cc3)c12 [Example 14, 4-{7-amino-3-[(3R)-1-(cyclobutylacetyl)piperidin-3-yl]-1H-pyrazolo[3,4-c]pyridin-1-yl}-N-[4-(trifluoromethyl)pyridin-2-yl]benzamide]",3.5
3,"C[C@H](O)C(=O)N1C[C@H](c2nn(-c3ccc(C(=O)Nc4cc(C5CC5)ccn4)cc3)c3c(N)nccc23)CC[C@@H]1C [Example 32, 4-(7-amino-3-{(3R,6S)-1-[(2S)-2-hydroxypropanoyl]-6-methylpiperidin-3-yl}-1H-pyrazolo[3,4-c]pyridin-1-yl)-N-(4-cyclopropylpyridin-2-yl)benzamide]",1.6
4,"CO[C@@H](C)C(=O)N1C[C@H](c2nn(-c3ccc(C(=O)Nc4cc(C5CC5)ccn4)cc3)c3c(N)nccc23)CC[C@@H]1C [Example 33, 4-(7-amino-3-{(3R,6S)-1-[(2S)-2-methoxypropanoyl]-6-methylpiperidin-3-yl}-1H-pyrazolo[3,4-c]pyridin-1-yl)-N-(4-cyclopropylpyridin-2-yl)benzamide]",2
5,"COc1ccnc(NC(=O)c2ccc(-n3nc([C@H]4CN(C(C)=O)CCO4)c4ccnc(N)c43)cc2)c1 [Example 6, 4-{3-[(2R)-4-acetylmorpholin-2-yl]-7-amino-1H-pyrazolo[3,4-c]pyridin-1-yl}-N-(4-methoxypyridin-2-yl)benzamide]",28.8
6,"C[C@@H](O)C(=O)N1C[C@H](c2nn(-c3ccc(C(=O)Nc4cccc(OC5CC5)c4)cc3)c3c(N)nccc23)CC[C@@H]1C [Example 36, 4-(7-amino-3-((3R,6S)-1-((R)-2-hydroxypropanoyl)-6-methylpiperidin-3-yl)-1H-pyrazolo[3,4-c]pyridin-1-yl)-N-(3-cyclopropoxyphenyl)benzamide]",30.4
7,"Nc1nccc2c([C@@H]3CCCN(C(=O)C4CC4(F)F)C3)nn(-c3ccc(C(=O)Nc4cc(C(F)(F)F)ccn4)cc3)c12 (stereo partly drawn) [Example 12, 4-(7-amino-3-{(3R)-1-[(2,2-difluorocyclopropyl)carbonyl]piperidin-3-yl}-1H-pyrazolo[3,4-c]pyridin-1-yl)-N-[4-(trifluoromethyl)pyridin-2-yl]benzamide]",3
8,"Cc1noc(C)c1C(=O)N1CCC[C@@H](c2nn(-c3ccc(C(=O)Nc4cc(C(F)(F)F)ccn4)cc3)c3c(N)nccc23)C1 [Example 15, 4-(7-amino-3-{(3R)-1-[(3,5-dimethylisoxazol-4-yl)carbonyl]piperidin-3-yl}-1H-pyrazolo[3,4-c]pyridin-1-yl)-N-[4-(trifluoromethyl)pyridin-2-yl]benzamide]",5.3
9,"Nc1nccc2c([C@@H]3CC[C@H]4CCC(=O)N4C3)nn(-c3ccc(C(=O)Nc4cc(C(F)(F)F)ccn4)cc3OC3CC3)c12 [Example 39, 4-{7-amino-3-[(6R,8aS)-3-oxooctahydroindolizin-6-yl]-1H-pyrazolo[3,4-c]pyridin-1-yl}-3-(cyclopropyloxy)-N-[4-(trifluoromethyl)pyridin-2-yl] benzamide]",2.8
10,"COc1ccnc(NC(=O)c2ccc(-n3nc([C@@H]4CCCN(C(=O)C(C)(CO)CO)C4)c4ccnc(N)c43)cc2)c1 [Example 29, (R)-4-(7-amino-3-(1-(3-hydroxy-2-(hydroxymethyl)-2-methylpropanoyl)piperidin-3-yl)-1H-pyrazolo[3,4-c]pyridin-1-yl)-N-(4-methoxypyridin-2-yl)benzamide 2,2,2-trifluoroacetate]",1.6
11,"COc1ccnc(NC(=O)c2ccc(-n3nc([C@H]4CN(C(=O)C5(C)COC5)CCO4)c4ccnc(N)c43)cc2)c1 [Example 8, 4-(7-amino-3-{(2R)-4-[(3-methyloxetan-3-yl)carbonyl]morpholin-2-yl}-1H-pyrazolo[3,4-c]pyridin-1-yl)-N-(4-methoxypyridin-2-yl)benzamide]",42.1
12,"COCC(=O)Nc1nccc2c([C@H]3CN(C(=O)COC)CCO3)nn(-c3ccc(C(=O)Nc4cc(C(F)(F)F)ccn4)cc3)c12 [Example 4, 4-{7-[(methoxyacetyl)amino]-3-[(2R)-4-(methoxyacetyl)morpholin-2-yl]-1H-pyrazolo[3,4-c]pyridin-1-yl}-N-[4-(trifluoromethyl)pyridin-2-yl]benzamide]",46.5
13,"CCC(=O)N1CCO[C@@H](c2nn(-c3ccc(C(=O)Nc4cc(C(F)(F)F)ccn4)cc3)c3c(N)nccc23)C1 [Example 3, 4-{7-amino-3-[(2R)-4-propanoylmorpholin-2-yl]-1H-pyrazolo[3,4-c]pyridin-1-yl}-N-[4-(trifluoromethyl)pyridin-2-yl] benzamide]",1.8
14,"COc1ccnc(NC(=O)c2ccc(-n3nc([C@@H]4CCCN(C(=O)C5(C)COC5)C4)c4ccnc(N)c43)cc2)c1 [Example 28, (R)-4-(7-amino-3-(1-(3-methyloxetane-3-carbonyl)piperidin-3-yl)-1H-pyrazolo[3,4-c]pyridin-1-yl)-N-(4-methoxypyridin-2-yl)benzamide 2,2,2-trifluoroacetate]",0.49
15,"CC1(C(=O)N2CCO[C@@H](c3nn(-c4ccc(C(=O)Nc5cc(C(F)(F)F)ccn5)cc4)c4c(N)nccc34)C2)COC1 [Example 1, (R)-4-(7-amino-3-(4-(3-methyloxetane-3-carbonyl)morpholin-2-yl)-1H-pyrazolo[3,4-c]pyridin-1-yl)-N-(4-(trifluoromethyl)pyridin-2-yl)benzamide]",2.2
16,"C[C@H]1CC[C@@H](c2nn(-c3ccc(C(=O)Nc4cc(C5CC5)ccn4)cc3)c3c(N)nccc23)CN1C(=O)C1CC1 [Example 31, 4-{7-amino-3-[(3R,6S)-1-(cyclopropylcarbonyl)-6-methylpiperidin-3-yl]-1H-pyrazolo[3,4-c]pyridin-1-yl}-N-(4-cyclopropylpyridin-2-yl)benzamide]",1.3

# Other lines, results leading:
row,IC50 [nM],Compound
1,1.2,"COCCOCC(=O)N1CCC[C@@H](c2nn(-c3ccc(C(=O)Nc4cc(C(F)(F)F)ccn4)cc3)c3c(N)nccc23)C1 [Example 23, 4-(7-amino-3-{(3R)-1-[(2-methoxyethoxy)acetyl]piperidin-3-yl}-1H-pyrazolo[3,4-c]pyridin-1-yl)-N-[4-(trifluoromethyl)pyridin-2-yl]benzamide]"
2,1.2,"CCOCC(=O)N1CCC[C@@H](c2nn(-c3ccc(C(=O)Nc4cc(C(F)(F)F)ccn4)cc3)c3c(N)nccc23)C1 [Example 22, 4-{7-amino-3-[(3R)-1-(ethoxyacetyl)piperidin-3-yl]-1H-pyrazolo[3,4-c]pyridin-1-yl}-N-[4-(trifluoromethyl)pyridin-2-yl]benzamide]"
3,0.96,"C[C@H]1CC[C@@H](c2nn(-c3ccc(C(=O)Nc4cccc(OC5CC5)c4)cc3)c3c(N)nccc23)CN1C(=O)C1(C)COC1 [Example 35, 4-(7-amino-3-((3R,6S)-6-methyl-1-(3-methyloxetane-3-carbonyl)piperidin-3-yl)-1H-pyrazolo[3,4-c]pyridin-1-yl)-N-(3-cyclopropoxyphenyl)benzamide]"
4,0.9,"COCC(=O)N1CCC[C@@H](c2nn(-c3ccc(C(=O)Nc4cc(C(F)(F)F)ccn4)cc3)c3c(N)nccc23)C1 [Example 18, 4-{7-amino-3-[(3R)-1-(methoxyacetyl)piperidin-3-yl]-1H-pyrazolo[3,4-c]pyridin-1-yl}-N-[4-(trifluoromethyl)pyridin-2-yl]benzamide]"
5,0.87,"C[C@H]1CC[C@@H](c2nn(-c3ccc(C(=O)Nc4cccc(OC5CC5)c4)cc3)c3c(N)nccc23)CN1C(=O)C1CC1 [Example 34, 4-(7-amino-3-((3R,6S)-1-(cyclopropanecarbonyl)-6-methylpiperidin-3-yl)-1H-pyrazolo[3,4-c]pyridin-1-yl)-N-(3-cyclopropoxyphenyl)benzamide]"
6,0.71,"Cc1n[nH]cc1C(=O)N1CCC[C@@H](c2nn(-c3ccc(C(=O)Nc4cc(C(F)(F)F)ccn4)cc3)c3c(N)nccc23)C1 [Example 10, 4-(7-amino-3-{(3R)-1-[(3-methyl-1H-pyrazol-4-yl)carbonyl]piperidin-3-yl}-1H-pyrazolo[3,4-c]pyridin-1-yl)-N-[4-(trifluoromethyl)pyridin-2-yl]benzamide]"
7,0.59,"Nc1nccc2c([C@@H]3CCCN(C(=O)C4(O)CC4)C3)nn(-c3ccc(C(=O)Nc4cc(C(F)(F)F)ccn4)cc3)c12 [Example 25, 4-(7-amino-3-{(3R)-1-[(1-hydroxycyclopropyl)carbonyl]piperidin-3-yl}-1H-pyrazolo[3,4-c]pyridin-1-yl)-N-[4-(trifluoromethyl)pyridin-2-yl]benzamide]"
8,0.53,"CC(=O)N1CCC[C@@H](c2nn(-c3ccc(C(=O)Nc4cc(C(F)(F)F)ccn4)cc3)c3c(N)nccc23)C1 [Example 21, 4-{3-[(3R)-l-acetylpiperidin-3-yl]-7-amino-1H-pyrazolo[3,4-c]pyridin-1-yl}-N-[4-(trifluoromethyl)pyridin-2-yl]benzamide]"
9,0.47,"CC1(C(=O)N2CCC[C@@H](c3nn(-c4ccc(C(=O)Nc5cc(C(F)(F)F)ccn5)cc4)c4c(N)nccc34)C2)COC1 [Example 9, (R)-4-(7-amino-3-(1-(3-methyloxetane-3-carbonyl)piperidin-3-yl)-1H-pyrazolo[3,4-c]pyridin-1-yl)-N-(4-(trifluoromethyl)pyridin-2-yl)benzamide]"
10,0.44,"CCOc1cc(C(=O)Nc2cc(C(F)(F)F)ccn2)ccc1-n1nc([C@@H]2CC[C@H]3CCC(=O)N3C2)c2ccnc(N)c21 [Example 41, 4-{7-amino-3-[(6R,8aS)-3-oxooctahydroindolizin-6-yl]-1H-pyrazolo[3,4-c]pyridin-1-yl}-3-ethoxy-N-[4-(trifluoromethyl)pyridin-2-yl] benzamide]"
